In patent publication US12371748B2, “Genetic markers for predicting responsiveness to therapy with HDL-raising or HDL mimicking agent” (Hoffmann-La Roche Inc., priority 2014, dated 2025):

System: patients with evidence of coronary artery disease
Experiment: dal-PLAQUE-2: change in carotid intima-media thickness (B-mode ultrasound) by ADCY9 genotype
Type: in vivo, human
Text: The dal-PLAQUE-2 study (Tardif J C et al, Circulation Cardiovascular imaging 2011; 4:319-33) was a phase 3b multicenter, double-blind, randomized, placebo-controlled, parallel group trial designed to evaluate the effect of dalcetrapib on atherosclerotic disease progression in patients with evidence of coronary artery disease and carotid intima media thickness of at least 0.65 mm in the far wall of the common carotid arteries, as assessed by B-mode ultrasonography. A total of 931 patients were randomized to receive dalcetrapib 600 mg daily or matching placebo with intended treatment duration of 24 months. However, the trial was terminated prematurely concurrent with the termination of dal OUTCOMES (the latter due to futility). Patients continued study medication until they returned for follow-up carotid imaging at 12 months. Carotid B-mode ultrasound recordings at baseline, month 6, and month 12 were analyzed centrally at the core laboratory of the Montreal Heart Institute. Intima-media thickness (IMT) was analyzed on the far wall of the common carotid arteries. A segment of 10 mm in length of the common carotid artery was analyzed on serial examinations using an automated edge detection software (Carotid Analyzer, Medical Imaging Applications, Coralville, Iowa). Among the 411 participants in the dal-PLAQUE-2 trial who consented to the genetic study, 386 had imaging measures at baseline, 6 months and 12 months (194 and 192 in the dalcetrapib and placebo arms respectively). DNA was extracted from whole blood. The research protocols were approved by the relevant institutional review boards or ethics committees and all human participants gave written informed consent.
All acquired carotid ultrasound recordings were analyzed at the core laboratory of the Montreal Heart Institute by experienced technicians supervised by a physician. Images were required to meet quality and inclusion and exclusion criteria for eligibility prior to random assignment to study treatment. The methods for carotid intima-media thickness analysis included side-by-side viewing of baseline and follow-up studies.
Carotid arterial wall segments were assessed in a longitudinal view, perpendicular to the ultrasound beam, with a horizontal display of the arterial image in order to view the interfaces between blood and vascular structures on the longest possible segment. The localization of the end of the common carotid artery was used as the landmark in repositioning and analyzing comparative length of segments in baseline and follow-up studies. Intima-media thickness was analyzed on the far wall of the right and left common carotid arteries, to reduce variability of measurements. The average of the mean intima-media thickness values of the right and left common carotid arteries was used. A matched segment of 10 mm in length of the common carotid artery was analyzed on serial examinations (baseline, 6 months and 12 months), starting 5 mm proximal to the carotid bifurcation. The edge detection software Carotid Analyzer (Medical Imaging Applications LLC, Coralville, Iowa) was used to analyze intima-media thickness using the automated option. Two sets of carotid artery borders were identified: First, the media-adventitia borders were determined and verified by the reader. When required, their locations were semi-automatically modified to the correct location. When these borders were approved, the lumen-intima boundaries were automatically detected using the media-adventitia borders for guidance. Frames from looped sequences of intima-media thickness were selected for reading, and poor quality outlier frames were removed from the analysis when required.
For the dal-Plaque-2 population, mixed regression models for repeated measures analysis were tested in SAS software. The dal-Plaque-2 tested endpoint was the mean of IMT measures of common carotid arteries at the 6-month and the 12-month visits, using the baseline measure as covariate. […]

## CCC(CC)CC1(C(=O)Nc2ccccc2SC(=O)C(C)C)CCCCC1 [dalcetrapib, thioisobutyric acid S-(2-{[1-(2-ethyl-butyl)-cyclohexanecarbonyl]-amino}-phenyl) ester]
rs1967309, heterozygotes, M12
  Change from baseline in carotid intima-media thickness, Mean: −0.001 mm
rs1967309, homozygotes for major allele, M06
  Change from baseline in carotid intima-media thickness, Mean: 0.006 mm
rs1967309, homozygotes for major allele, M12
  Change from baseline in carotid intima-media thickness, Mean: 0.005 mm
rs1967309, homozygotes for minor allele, M12
  Change from baseline in carotid intima-media thickness, Mean: −0.021 mm
rs1967309 AA homozygotes
  change in IMT after 12 months of treatment: −0.021±0.083 mm
rs1967309 GG homozygotes
  change in IMT after 12 months of treatment: +0.005±0.042 mm
rs1967309 heterozygotes
  change in IMT after 12 months of treatment: −0.001±0.048 mm
rs2238448, heterozygotes, M06
  Change from baseline in carotid intima-media thickness, Mean: −0.003 mm
rs2238448, heterozygotes, M12
  Change from baseline in carotid intima-media thickness, Mean: 0.000 mm
rs2238448, homozygotes for major allele, M06
  Change from baseline in carotid intima-media thickness, Mean: 0.011 mm
rs2238448, homozygotes for major allele, M12
  Change from baseline in carotid intima-media thickness, Mean: 0.009 mm
rs2238448, homozygotes for minor allele, M06
  Change from baseline in carotid intima-media thickness, Mean: −0.010 mm
rs2238448, homozygotes for minor allele, M12
  Change from baseline in carotid intima-media thickness, Mean: −0.027 mm
rs2238448 CC (common allele homozygotes)
  change in IMT after 12 months of treatment: +0.009±0.038 mm
rs2238448 TT (minor allele homozygotes)
  change in IMT after 12 months of treatment: −0.027±0.079 mm
rs2238448 heterozygotes
  change in IMT after 12 months of treatment: 0.000±0.048 mm
rs2239310, heterozygotes, M06
  Change from baseline in carotid intima-media thickness, Mean: −0.004 mm
rs2239310, heterozygotes, M12
  Change from baseline in carotid intima-media thickness, Mean: −0.003 mm
rs2239310, homozygotes for major allele, M06
  Change from baseline in carotid intima-media thickness, Mean: 0.004 mm
rs2239310, homozygotes for major allele, M12
  Change from baseline in carotid intima-media thickness, Mean: 0.001 mm
rs2239310, homozygotes for minor allele, M06
  Change from baseline in carotid intima-media thickness, Mean: −0.001 mm
rs2239310, homozygotes for minor allele, M12
  Change from baseline in carotid intima-media thickness, Mean: −0.002 mm
rs2283497, heterozygotes, M06
  Change from baseline in carotid intima-media thickness, Mean: −0.001 mm
rs2283497, heterozygotes, M12
  Change from baseline in carotid intima-media thickness, Mean: 0.005 mm
rs2283497, homozygotes for minor allele, M06
  Change from baseline in carotid intima-media thickness, Mean: −0.005 mm
rs2283497, homozygotes for minor allele, M12
  Change from baseline in carotid intima-media thickness, Mean: −0.006 mm
rs2531967, heterozygotes, M06
  Change from baseline in carotid intima-media thickness, Mean: −0.008 mm
rs2531967, heterozygotes, M12
  Change from baseline in carotid intima-media thickness, Mean: −0.006 mm
rs2531967, homozygotes for minor allele, M06
  Change from baseline in carotid intima-media thickness, Mean: −0.007 mm
rs2531967, homozygotes for minor allele, M12
  Change from baseline in carotid intima-media thickness, Mean: −0.031 mm
rs2531971, heterozygotes, M06
  Change from baseline in carotid intima-media thickness, Mean: −0.002 mm
rs2531971, heterozygotes, M12
  Change from baseline in carotid intima-media thickness, Mean: 0.002 mm
rs2531971, homozygotes for major allele, M06
  Change from baseline in carotid intima-media thickness, Mean: 0.008 mm
rs2531971, homozygotes for major allele, M12
  Change from baseline in carotid intima-media thickness, Mean: −0.002 mm
rs2531971, homozygotes for minor allele, M06
  Change from baseline in carotid intima-media thickness, Mean: −0.010 mm
rs2531971, homozygotes for minor allele, M12
  Change from baseline in carotid intima-media thickness, Mean: −0.016 mm
rs3730119, heterozygotes, M06
  Change from baseline in carotid intima-media thickness, Mean: −0.002 mm
rs3730119, heterozygotes, M12
  Change from baseline in carotid intima-media thickness, Mean: 0.004 mm
rs3730119, homozygotes for minor allele, M06
  Change from baseline in carotid intima-media thickness, Mean: 0.006 mm
rs3730119, homozygotes for minor allele, M12
  Change from baseline in carotid intima-media thickness, Mean: −0.028 mm
rs4786454, heterozygotes, M06
  Change from baseline in carotid intima-media thickness, Mean: −0.007 mm
rs4786454, heterozygotes, M12
  Change from baseline in carotid intima-media thickness, Mean: −0.005 mm
rs4786454, homozygotes for minor allele, M06
  Change from baseline in carotid intima-media thickness, Mean: −0.020 mm
rs4786454, homozygotes for minor allele, M12
  Change from baseline in carotid intima-media thickness, Mean: −0.049 mm
rs8049452, heterozygotes, M06
  Change from baseline in carotid intima-media thickness, Mean: −0.002 mm
rs8049452, heterozygotes, M12
  Change from baseline in carotid intima-media thickness, Mean: 0.003 mm
rs8049452, homozygotes for major allele, M06
  Change from baseline in carotid intima-media thickness, Mean: −0.008 mm
rs8049452, homozygotes for major allele, M12
  Change from baseline in carotid intima-media thickness, Mean: −0.013 mm
rs8049452, homozygotes for minor allele, M06
  Change from baseline in carotid intima-media thickness, Mean: 0.020 mm
rs8049452, homozygotes for minor allele, M12
  Change from baseline in carotid intima-media thickness, Mean: 0.006 mm
rs8061182, heterozygotes, M06
  Change from baseline in carotid intima-media thickness, Mean: 0.000 mm
rs8061182, heterozygotes, M12
  Change from baseline in carotid intima-media thickness, Mean: 0.007 mm
rs8061182, homozygotes for minor allele, M06
  Change from baseline in carotid intima-media thickness, Mean: 0.016 mm
